In PMC10491836, “Structural dynamics influences the antibacterial activity of a cell-penetrating peptide (KFF)3K” (Scientific Reports, 2023):
Values after ≈ are worked out from the molar mass of the structure shown. Read-outs that look alike come from different tables or passages of the source. Positions of bridges follow the written chain, without caps; N, C: chain ends. Non-standard residues stand in square brackets, D forms with d. Residues, ends and D or L forms follow the SMILES beside them. No end group written: not given here. S5 = C=CCCC[C@](C)(N)C(=O)O

Legend:
E. coli O157:H7 ST2-8624 [1] = format: cell-based; conditions: wells of MIC plate diluted 10, 100, 1000 times in MHB, 24 h, 37 °C
Procedure: (§1) The minimal bactericidal concentration (MBC) values were determined, by diluting wells from the MIC experiment plate in fresh MHB medium. Dilutions of 10, 100, and 1000 times were prepared for the MIC well and up to two higher than MIC concentrations of the tested compound. Dilutions were made on a transparent flat-bottom 96-well plate (Nest) that was next sealed and incubated for 24 h, at 37 °C with shaking. Growth in a given sample well was compared with GC and SC controls.

S. aureus ATCC 29213 [2] = format: cell-based
Procedure: as §1

[3] = system: S. aureus ATCC BAA1720 MRSA; format: cell-based
Procedure: as §1

E. coli K12 [4] = format: cell-based
Procedure: as §1

E. coli 1841-06 [5] = format: cell-based
Procedure: as §1

[6] = system: Ps. aeruginosa ATCC 27853; format: cell-based
Procedure: as §1

E. coli K12 [7] = experiment: Antibacterial activity determination, MIC; format: cell-based; conditions: MHB, 20 h, 37 °C, OD600; reference non-pathogenic strain; tested up to 32 µM
Procedure: (§2) The minimal inhibitory concentration (MIC) values were determined as follows. Bacteria were first cultured overnight in 2 mL of Lysogeny Broth (LB, VWR Chemicals) at 37 °C with shaking. Second, 20 µL of overnight culture was transferred into 2 mL of MHB medium and further cultured at 37 °C with shaking until the culture reached OD600 of 0.3. Third, the culture was diluted 1:100 in a fresh MHB medium and aliquots of 50 µL were mixed with 50 µL of the previously prepared dilutions of the tested compound in MHB on a transparent flat-bottom 96-well plate (Nest). The plate was then sealed with transparent foil (Titer-Tops) and incubated for 20 h, at 37 °C with shaking. Following incubation, OD at 600 nm was measured using the Tecan Sunrise plate reader. Growth inhibition was determined by comparing the given sample with untreated culture (Growth Control—GC) with MHB alone (Sterility Control—SC) as an additional reference. The experiment was performed in at least two biological replicates of two technical replicates each. Statistical significance was determined by a Two-way ANOVA test using GraphPad Prism 9.

E. coli O157:H7 ST2-8624 [8] = format: cell-based; conditions: MHB, 20 h, 37 °C, OD600; at least two biological replicates of two technical replicates; tested up to 32 µM
Procedure: as §2

S. aureus ATCC 29213 [9] = format: cell-based; remark: listed apart in the source
Procedure: as §2

[10] = system: S. aureus ATCC BAA1720 MRSA; format: cell-based; conditions: MHB, 20 h, 37 °C, OD600; methicillin-resistant strain; tested up to 32 µM
Procedure: as §2

E. coli 1841-06 [11] = format: cell-based; remark: listed apart in the source
Procedure: as §2

[12] = system: Ps. aeruginosa ATCC 27853; format: cell-based; remark: listed apart in the source
Procedure: as §2

[13] = molecular target: T1, α-chymotrypsin from bovine pancreas (Bos taurus, UniProt P00766); experiment: in vitro; format: in vitro ADME; conditions: pH 8
T1 construct: α-chymotrypsin from bovine pancreas; from tissue; host or cells: bovine pancreas
Procedure: (§3) The proteolytic stability of peptides was analyzed against α-chymotrypsin from bovine pancreas (3.4.21.1, ≥ 40 units/mg protein). Peptide solutions (340 µL) in ammonium bicarbonate buffer (0.1 M NH4HCO3, pH 8.0) were incubated with the appropriate amount of chymotrypsin at 37 °C with rapid shaking (600 rpm). Chymotrypsin and peptides were mixed in the 1:1333 ratio[47],[71]. Digestion mixture (60 µL) was taken at 4, 8, 12, 16, and 20 min and treated with 3 µL of 50% acetonitrile containing 1% TFA to stop the reaction and immediately store in ice. Peptide degradation was analyzed with RP-HPLC using the analytical method from 15 to 75% of acetonitrile in 30 min. Before the injection, the sample was diluted by adding 57 µL of ammonium bicarbonate buffer. 100 µL of the solution taken in each period was injected. The stabilities were quantified as the percentage of the peptide peak of area degradation. The total area of each peak was determined for experiments without chymotrypsin. Each experiment was performed twice on different days.

[14] = system: Gram-positive and Gram-negative strains; conditions: both Gram-positive and Gram-negative strains; cited from earlier work
Description: Furthermore, a single-point mutation of a peptide sequence can change its solely cell-penetrating ability into antimicrobial activity, or vice versa. It was shown that the incorporation of hydrophobic or cationic residues changed the character of a CPP into a more antibacterial one.

α-chymotrypsin = system: T2, α-chymotrypsin; experiment: in vitro; format: in vitro ADME, bovine; conditions: isolated enzyme chymotrypsin, pH 8
T2 construct: α-chymotrypsin from bovine pancreas; from tissue; host or cells: bovine pancreas
Procedure: as §3

[15] = system: various Gram-positive and Gram-negative strains; experiment: MIC over the panel of strains (summary statements); format: cell-based
Procedure: as §2

[16] = wells of MIC plate diluted 10, 100, 1000 times in MHB, 24 h, 37 °C
[17] = MHB, 20 h, 37 °C, OD600, tested up to 32 µM

Compound	MBC (E. coli O157:H7 ST2-8624 [1]) [µM]	MBC (S. aureus ATCC 29213 [2]; ATCC 29213, 24 h) [µM]	MBC ([3]; ATCC BAA1720, 24 h) [µM]	MBC (E. coli K12 [4]; K12, 24 h) [µM]	MBC (E. coli 1841-06 [5]; 1841-06, 24 h) [µM]	MBC ([6]; ATCC 27853, 24 h) [µM]	MIC (E. coli K12 [7]) [µM]	MIC (E. coli O157:H7 ST2-8624 [8]) [µM]	MIC (S. aureus ATCC 29213 [9]; ATCC 29213, 20 h) [µM]	MIC [10] [µM]	MIC (E. coli 1841-06 [11]; 1841-06, 20 h) [µM]	MIC ([12]; ATCC 27853, 20 h) [µM]	further results
C[C@@]1(C(=O)N[C@@H](CCCCN)C(=O)N[C@@H](Cc2ccccc2)C(=O)N[C@@H](Cc2ccccc2)C(=O)N[C@@H](CCCCN)C(N)=O)CCCC=CCCC[C@](C)(NC(=O)[C@@H](N)CCCCN)C(=O)N[C@@H](Cc2ccccc2)C(=O)N[C@@H](CCCCN)C(=O)N[C@@H](Cc2ccccc2)C(=O)N1 [(KFF)3K[2–6]] (H-K[S5]FKF[S5]KFFK-NH2; staple 2-6)	4 (≈ 5.48 µg/mL)	16 to 32	16 to 32	2 (≈ 2.74 µg/mL)	4 (≈ 5.48 µg/mL)	8 (≈ 11 µg/mL)	2 (≈ 2.74 µg/mL)	4 (≈ 5.48 µg/mL)	16 (≈ 21.9 µg/mL)	8 (≈ 11 µg/mL)	4 (≈ 5.48 µg/mL)	4 to 8	–
C[C@@]1(C(=O)N[C@@H](CCCCN)C(N)=O)CCCC=CCCC[C@](C)(NC(=O)[C@H](CCCCN)NC(=O)[C@H](Cc2ccccc2)NC(=O)[C@H](Cc2ccccc2)NC(=O)[C@@H](N)CCCCN)C(=O)N[C@@H](Cc2ccccc2)C(=O)N[C@@H](CCCCN)C(=O)N[C@@H](Cc2ccccc2)C(=O)N1 [(KFF)3K[5–9]] (H-KFFK[S5]FKF[S5]K-NH2; staple 5-9)	8 (≈ 11 µg/mL)	16 (≈ 21.9 µg/mL)	32 (≈ 43.8 µg/mL)	2 (≈ 2.74 µg/mL)	8 (≈ 11 µg/mL)	4 (≈ 5.48 µg/mL)	2 (≈ 2.74 µg/mL)	8 (≈ 11 µg/mL)	8 to 16	16 (≈ 21.9 µg/mL)	4 (≈ 5.48 µg/mL)	4 (≈ 5.48 µg/mL)	peptide remained undigested after incubation in chymotrypsin solution [13]: 90%
KETWWETWWTEWSQPKKKRKV [Pep-1, amphipathic cell-penetrating peptide quoted from the literature]	–	–	–	–	–	–	–	–	–	–	–	–	MIC [14]: 32 to 64 µM
KFFKFFKFFK-NH2 [(KFF)3K]	≥ 32	> 32	> 32	32	> 32	≥ 32	32	32	> 32	> 32	> 32	32	metabolised at 20 min (α-chymotrypsin): 70%; MIC ([15]; all Gram-positive and Gram-negative strains tested): > 32 µM
polymyxin B	0.5 to 1	–	–	–	–	–	0.125	0.5 to 1	–	> 32	–	–	MBC (S. aureus ATCC 29213 [2]; [16]): > 32 µM; MBC [3, 16]: > 32 µM; MBC (E. coli K12 [4]; [16]): 0.125 µM; MBC (E. coli 1841-06 [5]; [16]): 1 µM; MBC [6, 16]: 1 µM; MIC (S. aureus ATCC 29213 [9]; [17]): > 32 µM; MIC (E. coli 1841-06 [11]; MHB, 20 h, 37 °C, OD600, β-lactam resistant strain, tested up to 32 µM): 1 µM; MIC [12, 17]: 1 µM; antibacterial activity ([15]; Gram-positive strains, tested up to 32 µM): not active
